The target of one assay is Phosphodiesterase 4 (Homo sapiens, UniProt P27815+Q08499+Q07343+Q08493). The assay is described as follows: Inhibition of cAMP hydrolysis by human Phosphodiesterase 4. The format is protein assay.
For assay [1], the target named is High affinity 3',5'-cyclic-AMP phosphodiesterase 7A (Homo sapiens, UniProt Q13946). The assay is described as follows: Inhibition of human Phosphodiesterase 7.
The next assay concerns the target Phosphodiesterase 3 (Homo sapiens, UniProt Q14432+Q13370). Kind of assay: Inhibition of Phosphodiesterase 3 from human pulmonary artery. The format is tissue-based.
Assay [2] deals with T1, cGMP-dependent 3',5'-cyclic phosphodiesterase (Bos taurus, UniProt P14099).
T1 sequence (P14099 whole entry): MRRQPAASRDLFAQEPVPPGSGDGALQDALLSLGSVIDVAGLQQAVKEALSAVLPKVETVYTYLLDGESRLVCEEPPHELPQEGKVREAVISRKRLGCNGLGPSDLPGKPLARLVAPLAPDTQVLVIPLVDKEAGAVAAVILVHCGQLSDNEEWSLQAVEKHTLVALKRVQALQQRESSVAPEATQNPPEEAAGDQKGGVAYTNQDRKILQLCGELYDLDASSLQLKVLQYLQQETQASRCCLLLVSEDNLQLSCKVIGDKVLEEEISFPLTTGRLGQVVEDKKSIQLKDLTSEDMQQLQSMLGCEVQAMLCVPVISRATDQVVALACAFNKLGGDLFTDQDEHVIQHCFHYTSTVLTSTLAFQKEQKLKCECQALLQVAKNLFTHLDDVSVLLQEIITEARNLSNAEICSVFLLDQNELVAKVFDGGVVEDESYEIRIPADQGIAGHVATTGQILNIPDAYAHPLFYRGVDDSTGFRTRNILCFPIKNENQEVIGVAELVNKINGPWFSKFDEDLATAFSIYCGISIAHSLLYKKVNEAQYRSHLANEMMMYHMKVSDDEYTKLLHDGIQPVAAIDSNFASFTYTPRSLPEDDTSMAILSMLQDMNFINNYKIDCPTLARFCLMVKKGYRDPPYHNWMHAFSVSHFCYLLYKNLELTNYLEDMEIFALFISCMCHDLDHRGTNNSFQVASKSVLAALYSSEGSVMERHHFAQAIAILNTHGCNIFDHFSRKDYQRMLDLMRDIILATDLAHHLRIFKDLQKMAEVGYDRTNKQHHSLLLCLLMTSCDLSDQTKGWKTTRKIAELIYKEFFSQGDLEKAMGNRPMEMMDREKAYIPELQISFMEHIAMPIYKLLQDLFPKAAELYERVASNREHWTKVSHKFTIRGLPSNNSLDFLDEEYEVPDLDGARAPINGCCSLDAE
The assay is described as follows: Inhibition of bovine Phosphodiesterase 2.

Another assay addresses Phosphodiesterase 6. Kind of assay: Inhibition of Phosphodiesterase 6 from bovine retina. Type of assay: protein assay, Bos taurus.
The next assay deals with Phosphodiesterase 1 (Bos taurus, UniProt Q01061+P14100). The assay is described as follows: Inhibition of Phosphodiesterase 1 from bovine aorta. The format is protein assay.
Assay [3] addresses cGMP-specific 3',5'-cyclic phosphodiesterase (Homo sapiens, UniProt O76074). Kind of assay: Inhibition of Phosphodiesterase 5 isolated from human trachea. Type of assay: tissue-based.

Molecules are shown by their SMILES.

Chain of High affinity 3',5'-cyclic-AMP phosphodiesterase 7A (Q13946 whole entry): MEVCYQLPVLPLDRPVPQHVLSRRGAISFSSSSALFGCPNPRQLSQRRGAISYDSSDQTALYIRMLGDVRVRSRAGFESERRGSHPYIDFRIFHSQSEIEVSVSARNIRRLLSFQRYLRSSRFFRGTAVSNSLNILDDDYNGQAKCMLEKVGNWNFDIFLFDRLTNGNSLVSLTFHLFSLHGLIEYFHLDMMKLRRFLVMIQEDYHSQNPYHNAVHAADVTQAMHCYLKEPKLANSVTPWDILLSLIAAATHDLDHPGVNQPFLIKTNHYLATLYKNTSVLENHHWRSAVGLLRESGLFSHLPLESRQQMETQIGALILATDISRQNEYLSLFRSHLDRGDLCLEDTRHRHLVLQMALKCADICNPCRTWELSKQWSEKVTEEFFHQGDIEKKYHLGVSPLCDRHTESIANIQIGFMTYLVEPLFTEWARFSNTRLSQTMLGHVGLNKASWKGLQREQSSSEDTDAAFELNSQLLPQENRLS

As for `CCOC(=O)[C@@H]1CN(C(=O)OC)C[C@H]1c1ccc(OC)c(OC2CCCC2)c1`, at Phosphodiesterase 4, the Ki (as a rule, the equilibrium dissociation constant of an inhibitor or competing ligand from its target) was 550 nM. `COC(=O)N1C[C@@H](c2ccc(OC)c(OC3CCCC3)c2)[C@](C)(C(=O)OC)C1` yielded a Ki at Phosphodiesterase 4 of 3 nM. Consider `COC(=O)N1C[C@H](C)[C@H](c2ccc(OC)c(OC3CCCC3)c2)C1`, for which, on Phosphodiesterase 4, the Ki is 100 nM. This Ki is about 33-fold higher than that of the molecule before.

Consider `COC(=O)N1C[C@@H](c2ccc(OC)c(OC3CCCC3)c2)[C@](C)(CO)C1`, for which the Ki at Phosphodiesterase 4 worked out at 37 nM.

As to `COC(=O)N1C[C@@H](c2ccc(OC)c(OC3CCCC3)c2)[C@](C)(C(C)=O)C1`, the Ki is 7900 nM in assay [1]; greater than 100000 nM at Phosphodiesterase 3; greater than 100000 nM in assay [2]; greater than 100000 nM on Phosphodiesterase 6; greater than 100000 nM at Phosphodiesterase 1; greater than 100000 nM in assay [3]. The molecule also had a Ki on Phosphodiesterase 4 of 1 nM. Turning to `COC(=O)[C@@H]1CN(C(=O)OC)C[C@H]1c1ccc(OC)c(OC2CCCC2)c1`, the Ki on Phosphodiesterase 4 turned out to be 159 nM. As for `COC(=O)N1C[C@@H](C(C)=O)[C@H](c2ccc(OC)c(OC3CCCC3)c2)C1`, on Phosphodiesterase 4, the Ki was found to be 33 nM. `CCOC(=O)[C@]1(C)CN(C(=O)OC)C[C@H]1c1ccc(OC)c(OC2CCCC2)c1`: the Ki at Phosphodiesterase 4 was 86 nM. Still for that read-out and setting: as for `CC[C@@]1(C(C)=O)CN(C(=O)OC)C[C@H]1c1ccc(OC)c(OC2CCCC2)c1`, the figure is 10 nM.

Molecule `COC(=O)N1CC[C@H](c2ccc(OC)c(OC3CCCC3)c2)C1` registered a Ki on Phosphodiesterase 4 of 110 nM.

At Phosphodiesterase 4, `COC(=O)N1C[C@@H](CO)[C@H](c2ccc(OC)c(OC3CCCC3)c2)C1` displayed a Ki of 224 nM.
